From US20250221989A1, “PHARMACEUTICAL COMPOSITION, USE THEREOF, AND METHOD FOR TREATING CANCER” (Genfleet Therapeutics (Shanghai) Inc., priority 2022, published 2025)
Marks after values point to notes of the source that are not given here.

What was measured:
[1] = system: Human non-small cell lung cancer cells SW1573; assay: Cell survival rate of SW1573 cells under drug combination, Cell Titer-Glo; format: cell-based; conditions: 120 h
Procedure: (§1) The cell survival rate (%) after the drug combinations was calculated by the formula: cell survival rate=(1−(RLU of DMSO control−RLU of treatment)/(RLU of DMSO control−RLU of blank control))×100%. The DMSO control was a vehicle control with no drugs, and the blank control was a medium control with no drugs and vehicles.
(§2) The value corresponding to the coordinates is the cell survival rate of the combination groups with corresponding concentrations of the two drugs.
(§3) The effect of the drug combinations on the tumor cells was evaluated by statistical methods. The statistical software used was R systems, and the statistical models were Bliss, HSA, Loewe, and ZIP. A synergic value>5 indicates a synergic effect, a synergic value>10 indicates a significant synergic effect, a synergic value<−5 indicates an antagonistic effect, and a synergic value<−10 indicates a significant antagonistic effect. The final efficacy of the drug combinations was further judged by the synergic value.
(§4) After 120 h, the cell viability was measured by Cell Titer-Glo method. The Cell Titer-Glo reagent was added at 30 μL/well. The plate was shaken for 2 min and left to stand for 10 min. The RLU value was read on the Envision system.

[2] = system: Human non-small cell lung cancer cells NCI-H2122; assay: Cell survival rate of NCI-H2122 cells under drug combination, Cell Titer-Glo; format: cell-based; conditions: 120 h
Procedure: as §1
The value corresponding to the coordinates is the cell survival rate of the combination groups with corresponding concentrations of the two drugs. For example, in FIG. 1, when the horizontal coordinate read is 0 nM and the vertical coordinate read is 10.03 nM, the value corresponding to the coordinates is 86.1.
as §3
Human non-small cell lung cancer cells NCI-H2122 were plated into a 384-well plate at 600 cells/well. […] After 120 h, the cell viability was measured by Cell Titer-Glo method. […] The RLU value was read on the Envision system.

[3] = system: NCI-H2122 human non-small cell lung cancer model; assay: In vivo anti-tumor evaluation in NCI-H2122 human non-small cell lung cancer model; design: species or system BALB/c nude mice
Procedure: During the study, the health of the animals was observed daily. If there was a 10% weight loss in the animals, the administration dose was halved; if there was a 15% weight loss, the […] until a normal body weight was restored; or if the tumor volume in the animals exceeded 2,000 mm^3, the mouse was euthanized immediately. If the health condition met the following criteria, euthanasia was performed by the veterinarian:
BALB/c nude mice, aged 6-8 weeks, female, purchased from Beijing Vital River Laboratory Animal Technology Co., Ltd., Certificate No. 20170011008676, and housed in an SPF-grade environment.
NCI-H2122 cells were cultured in an RPMI 1640 medium containing 10% of FBS and 1% of penicillin-streptomycin in an incubator at 37° C. and 5% CO2. […] When the cells were in the logarithmic growth phase and the confluence reached […], the cells were collected and counted. The cells were collected and adjusted to a final concentration of 2.0×10^6 cells/mL. Mice were grafted subcutaneously at the right dorsal region in a volume of 0.15 mL/3×10^5 cells/mouse. When the tumors grew to an average size of about 242 mm^3 (D5 after grafting), 32 tumor-bearing mice were selected, randomized into 4 groups of 8 mice each as per the tumor volume and the body weight, and treated according to the administration regimen shown in Table 1. The dose in mice was 10 mL/kg. The mice were weighed on an electronic balance twice weekly and the tumor volume was measured with a vernier caliper twice weekly. The study was ended on D17 after grafting, and the mice were euthanized after tumor volume measurement.
Tumor volume (TV)=(L×W^2)/2, where L denotes the long diameter of the tumor, and W is the short diameter of the tumor.
TWI=(1−TWtreatment/Dx/TWcontrol/Dx)×100%, where TWcontrol denotes the average tumor weight (g) of the control group, and TWtreatment denotes the average tumor weight (g) of the treatment group.
RCBW (%)=(BWi−BW0)/BW0×100%, where BWi is the body weight of a mouse on a specific day and BW0 is the body weight of the mouse at the baseline.
All experimental data analysis and graphing were performed using GraphPad Prism software (GraphPad Software). Tumor volumes and the body weights of the animals in all groups were statistically compared using two-way ANOVA, Dunnett's multiple comparisons test. Tumor weights of the groups at the endpoint were statistically compared using one-way ANOVA, Dunnett's multiple comparisons test. P<0.05 denotes a statistically significant difference. The tumor volume and weight and body weight of animals are expressed by mean±standard error (SEM).

[4] = system: mouse colon cancer CT26 KRAS G12C KI cell subcutaneous graft tumor model; assay: In vivo anti-tumor evaluation in mouse CT26 KRASG12C KI subcutaneous graft tumor model
Procedure: The animals and the main evaluation indexes were the same as those of Example 8.
Preparation: the compound of the formula (II) was prepared in a vehicle of 5% DMSO+10% Solutol HS 15+85% (6% HP—β-CD); mPD1 was prepared in PBS.
On day 12 after cell inoculation (DO), the grouping and treatment were started after the mean tumor volume reached 69 mm^3. 32 tumor-bearing mice were selected, randomized into 4 groups of 8 mice each as per the tumor volume and the body weight, and treated according to the administration regimen shown in Table 3. The administration volume in mice was 10 mL/kg. The mice were weighed on an electronic balance twice weekly and the tumor volume was measured with a vernier caliper twice weekly.
The main evaluation indexes were tumor volume, TGI, TWI, and RCBW.

[5] = system: Human rectal adenocarcinoma cells SW837; assay: Cell survival rate of SW837 cells under drug combination, Cell Titer-Glo; format: cell-based; conditions: 120 h
Procedure: as §1, §2, §3
as §4, with “Human rectal adenocarcinoma cells SW837 were plated into a 384-well plate at 800 cells/well. […] After” for “After”
as §4, with “Human rectal adenocarcinoma cells SW837 were plated into a 384-well plate at 800 cells/well. […] After” for “After”

[6] = system: Human non-small cell lung cancer cells LU99; assay: Cell survival rate of LU99 cells under drug combination, Cell Titer-Glo; format: cell-based; conditions: 120 h
Procedure: as §1, §2, §3
as §4, with “Human non-small cell lung cancer cells LU99 were plated into a 384-well plate at 600 cells/well. […] After” for “After”
as §4, with “Human non-small cell lung cancer cells LU99 were plated into a 384-well plate at 600 cells/well. […] After” for “After”

[7] = system: Human rectal adenocarcinoma cells SW1463; assay: Cell survival rate of SW1463 cells under drug combination, Cell Titer-Glo; format: cell-based; conditions: 120 h
Procedure: as §1, §2, §3, §4

[8] = Day 17, compound of formula (II) 10 mpk p.o. q.d., cetuximab 1 mpk i.p. biw
[9] = after 12 days treatment, mean ± SEM, compound of formula (II) 10 mpk p.o. q.d., cetuximab 1 mpk i.p. biw
[10] = Day 33, compound of formula (II) 3 mpk (D 0-9) & 1 mpk (D 10-20) p.o. q.d., mPD1 10 mpk i.p. biw
[11] = after 21 days treatment, compound of formula (II) 3 mpk (D 0-9) & 1 mpk (D 10-20) p.o. q.d., mPD1 10 mpk i.p. biw

Compound `C=CC(=O)N1CCN2c3c(c(=O)n(-c4c(C)ccnc4C(C)C)c4nc(-c5c(O)cccc5F)c(Cl)cc34)N(C)C(=O)[C@H]2C1` [Compound of formula (II), (4aR,8R)-3-acryloyl-11-chloro-10-(2-fluoro-6-hydroxyphenyl)-8-(2-isopropyl-4-methylpyridin-3-yl)-6-methyl-2,3,4,4a,6,8-hexahydro-1H-pyrazino[1′,2′: 4,5] pyrazino[2,3-c][1,8]naphthyridine-5,7-dione] has a cell survival rate ([1]; SW1573, Example 6, 100 nM compound of formula (II) alone) of 86.4%, a cell survival rate ([2]; NCI-H2122, Example 7, 3.17 nM compound of formula (II) alone) of 60.7% and a TGI [3, 8] of 73.81%. The TWI [3, 8] was 49.37%, the “Body weight After grafting Day 17” value [3, 9] was 20.97 ± 0.38 g and the “Tumor volume After grafting Day17” value [3, 9] was 479.14 ± 58.84*** mm^3. For the same compound, the “Body weight After grafting Day 5” value ([3]; baseline, mean ± SEM) was 21.16 ± 0.47 g, the “Tumor weight After grafting Day 17” value ([3]; endpoint, mean ± SEM, compound of formula (II) 10 mpk p.o. q.d., cetuximab 1 mpk i.p. biw) was 0.30 ± 0.04 g and the “tumor inhibitory effect (in words)” value ([4]; CT26 KRAS G12C KI subcutaneous graft tumor model) was “mild tumor inhibitory effects”. For the same compound, the TGI [4, 10] was 46.74%, the TWI [4, 10] was 35.38% and the “Body weight After grafting Day 33” value [4, 11] was 22.76 ± 0.37 g. For the same compound, the “Tumor volume Day 33 after grafting” value [4, 11] was 1065.38 ± 251.12 mm^3, the “Tumor volume Day 33 after grafting” value ([4]; after 21 days treatment, compound of formula (II) 3 mpk (D 0-9) & 1 mpk (D 10-20) p.o. q.d., mPD1 10 mpk i.p. biw, listed as compound of formula (II)) was 1,065 mm^3 and the “Tumor volume After grafting Day 12” value ([4]; baseline at grouping (D0), mean ± SEM, n=8) was 68.75 ± 6.65 mm^3. For the same compound, the “Body weight Day 12 after grafting” value ([4]; baseline, mean ± SEM) was 21.29 ± 0.29 g, the “Tumor weight After grafting Day 33” value ([4]; endpoint, compound of formula (II) 3 mpk (D 0-9) & 1 mpk (D 10-20) p.o. q.d., mPD1 10 mpk i.p. biw) was 1.84 ± 1.12 g and the T/C ([4]; mean tumor volume at end of study, compound of formula (II) 3 mpk (D 0-9) & 1 mpk (D 10-20) p.o. q.d., mPD1 10 mpk i.p. biw) was 54.92%. The cell survival rate ([5]; SW837, Example 2, 31.69 nM compound of formula (II) alone) was 60.2%, the cell survival rate ([5]; SW837, Example 4, 31.69 nM compound of formula (II) alone) was 56.2% and the cell survival rate ([6]; LU99, Example 1, 100 nM compound of formula (II) alone) was 83%. It also gave a cell survival rate ([6]; LU99, Example 3, 100 nM compound of formula (II) alone) of 83.8%, a cell survival rate ([6]; LU99, FIG. 1, coordinates 0 nM / 10.03 nM, stated as compound of formula (II) alone (BYL719 0 nM)) of 86.1% and a cell survival rate ([7]; SW1463, Example 5, 31.69 nM compound of formula (II) alone) of 43.2%.

Work on `Cc1nc(NC(=O)N2CCC[C@H]2C(N)=O)sc1-c1ccnc(C(C)(C)C(F)(F)F)c1` [BYL719, Alpelisib, reference compound] yielded a cell survival rate ([5]; SW837, Example 2, 10000 nM BYL719 alone) of 62.9% and a cell survival rate ([6]; LU99, Example 1, 1000 nM BYL719 alone) of 62.6%.

For `CC1(C)CC[C@H](Nc2ncc(C(F)(F)F)c(-c3c[nH]c4c(P(C)(C)=O)c(C#N)ccc34)n2)CN1` [SY-5609, reference compound], the cell survival rate ([2]; NCI-H2122, Example 7, 31.69 nM SY-5609 alone) was 57.5%.

Compound `CS(=O)(=O)N1CCN(Cc2cc3nc(-c4cccc5[nH]ncc45)nc(N4CCOCC4)c3s2)CC1` [GDC0941, Pictilisib, reference compound] has a cell survival rate ([1]; SW1573, Example 6, 3164 nM GDC0941 alone) of 46%, a cell survival rate ([5]; SW837, Example 4, 1000 nM GDC0941 alone) of 67.6% and a cell survival rate ([6]; LU99, Example 3, 100 nM GDC0941 alone) of 85.4%. The cell survival rate ([7]; SW1463, Example 5, 1000 nM GDC0941 alone) was 64.6%.
